According to patent US20100298141A1, “SUBSTITUTED PYRIDINE N-OXIDE HERBICIDES” (E. I. DU PONT DE NEMOURS AND COMPANY, priority 2007, published 2010):

Assays:
[1] = system: barnyardgrass; test: Test F preemergence test; format: in vivo, Echinochloa crus-galli
Excerpt: (§1) Seeds of plant species selected from bermudagrass (Cynodon dactylon), Surinam grass (Brachiaria decumbens), large crabgrass (Digitaria sanguinalis), green foxtail (Setaria viridis), goosegrass (Eleusine indica), johnsongrass (Sorghum halepense), kochia (Kochia scoparia), pitted morningglory (Ipomoea lacunosa), purple nutsedge (Cyperus rotundus), common ragweed (Ambrosia elation), mustard (Brassica nigra), guineagrass (Panicum maximum), […] (Paspalum dilatatum), barnyardgrass (Echinochloa crus-galli), southern sandbur (Cenchrus echinatus), common sowthistle (Sonchus oleraceous), prickly […] spinosa), Italian ryegrass (Lolium multiflorum), common purslane (Portulaca oleracea), broadleaf signalgrass (Brachiaria platyphylla), common groundsel (Senecio vulgaris), common chickweed (Stellaria media), Virginia dayflower (Commelina virginica), annual bluegrass (Poa annua), naked crabgrass (Digitaria nuda), […] cochinchinensis), quackgrass (Elytrigia repens), Canada horseweed (Conyza canadensis), field bindweed (Convolvulus arvensis), […] (Bidens bipinnata), common mallow (Malva sylvestris), Russian thistle (Salsola kali), and sugarcane (Saccharum officinarum) were planted and treated preemergence with test chemicals formulated in a non-phytotoxic solvent mixture which included a surfactant. At a different time, sugarcane was treated with postemergence applications of some of the test chemicals formulated in the same manner. Plants were approximately 3- to 4-leaf stage for the postemergence treatments. Treated plants and controls were maintained in a greenhouse for 14 to 21 days, after which time all species were compared to controls and visually evaluated. […] A dash (-) response means no test result.

[2] = system: large crabgrass; test: Test F preemergence test; format: in vivo, Digitaria sanguinalis; conditions: scale 0 to 100
Excerpt: as §1

[3] = system: spanishneedles; test: Test F preemergence test; format: in vivo, Bidens bipinnata; conditions: scale 0 to 100; for Plant response rating, Spanishneedles: 31 g ai/ha
Excerpt: as §1

[4] = system: Virginia dayflower; test: Test F preemergence test; format: in vivo, Commelina virginica; conditions: scale 0 to 100
Excerpt: as §1

[5] = system: common sowthistle; test: Test F preemergence test; format: in vivo, Sonchus oleraceous; conditions: scale 0 to 100
Excerpt: as §1

[6] = system: common chickweed; test: Test F preemergence test; format: in vivo, Stellaria media; conditions: scale 0 to 100
Excerpt: as §1

[7] = system: Canada horseweed; test: Test F preemergence test; format: in vivo, Conyza canadensis; conditions: scale 0 to 100
Excerpt: as §1

[8] = system: canarygrass; test: Test C postemergence test; format: in vivo, Phalaris minor; conditions: for Plant response rating, Canarygrass: scale 0 to 100, 0 no effect, 100 complete control
Method: (§2) At the same time, plants selected from these crop and weed species and also winter barley (Hordeum vulgare), canarygrass (Phalaris minor), and chickweed (Stellaria media) were treated with postemergence applications of some of the test chemicals formulated in the same manner. Plants ranged in height from 2 to 18 cm (1- to 4-leaf stage) for postemergence treatments. […] At time of treatment, test pots were flooded to 3 cm above the soil surface, treated by application of test compounds directly to the paddy water, and then maintained at that water depth for the duration of the test. Treated plants and controls were maintained in a greenhouse for 13 to 15 days, after which time all species were compared to controls and visually evaluated. […] A dash (-) response means no test result.

[9] = system: winter barley; test: Test C postemergence test; format: in vivo, Hordeum vulgare; conditions: for Plant response rating, Barley: scale 0 to 100, 0 no effect, 100 complete control
Method: as §2

[10] = system: chickweed; test: Test C postemergence test; format: in vivo, Stellaria media; conditions: for Plant response rating, Chickweed: scale 0 to 100, 0 no effect, 100 complete control
Method: as §2

[11] = system: windgrass; test: Test C pre-/postemergence test; format: in vivo, Apera spica-venti; conditions: Postemergence; for Plant response rating, Windgrass: scale 0 to 100, 0 no effect, 100 complete control
Excerpt: Seeds of plant species selected from blackgrass (Alopecurus myosuroides), downy brome (Bromus tectorum), green foxtail (Setaria viridis), Italian ryegrass (Lolium multiflorum), wheat (Triticum aestivum), wild oat (Avena fatua), catchweed bedstraw (Galium aparine), Russian thistle (Salsola kali), […] (Cynodon dactylon), Surinam grass (Brachiaria decumbens), cocklebur (Xanthium strumarium), corn (Zea mays), crabgrass (Digitaria sanguinalis), woolly cupgrass (Eriochloa villosa), giant foxtail (Setaria faberii), Goosegrass (Eleusin indica), johnsongrass (Sorghum halepense), kochia (Kochia scoparia), lambsquarters (Chenopodium album), morningglory (Ipomoea coccinea), eastern black nightshade (Solanum ptycanthum), yellow nutsedge (Cyperus esculentus), pigweed (Amaranthus retroflexus), common ragweed (Ambrosia elation), soybean (Glycine max), common (oilseed) sunflower (Helianthus annuus), and velvetleaf (Abutilon theophrasti) were planted and treated preemergence with test chemicals formulated in a non-phytotoxic solvent mixture which included a surfactant. At the same time, plants selected from these crop and weed species and also winter barley (Hordeum vulgare), canarygrass (Phalaris minor), and chickweed (Stellaria media) were treated with postemergence applications of some of the test chemicals formulated in the same manner. Plants ranged in height from 2 to 18 cm (1- to 4-leaf stage) for postemergence treatments. […] At time of treatment, test pots were flooded to 3 cm above the soil surface, treated by application of test compounds directly to the paddy water, and then maintained at that water depth for the duration of the test. […] A dash (-) response means no test result.

[12] = 62 g ai/ha, Preemergence, scale 0 to 100
[13] = 125 g ai/ha, preemergence, scale 0 to 100
[14] = Preemergence, 16 g ai/ha, scale 0 to 100
[15] = Preemergence, 31 g ai/ha, scale 0 to 100
[16] = 16 g ai/ha, preemergence, scale 0 to 100 (0 no effect, 100 complete control)

Row | SMILES | Barnyardgrass plant response rating [1, 12] | Barnyardgrass plant response rating [1, 13] | Plant response rating, Barnyardgrass [1, 14] | Plant response rating, Barnyardgrass [1, 15] | Crabgrass, Large plant response rating ([2]; 62 g ai/ha, Preemergence) | Crabgrass, Large plant response rating ([2]; 125 g ai/ha, preemergence) | Plant response rating, Crabgrass, Large ([2]; Preemergence, 16 g ai/ha) | Plant response rating, Crabgrass, Large ([2]; Preemergence, 31 g ai/ha) | Spanishneedles plant response rating ([3]; 62 g ai/ha, Preemergence) | Spanishneedles plant response rating ([3]; 125 g ai/ha, preemergence) | Plant response rating, Spanishneedles ([3]; Preemergence) | Dayflower plant response rating ([4]; 62 g ai/ha, Preemergence) | Dayflower plant response rating ([4]; 125 g ai/ha, preemergence) | Plant response rating, Dayflower ([4]; Preemergence, 16 g ai/ha) | Plant response rating, Dayflower ([4]; Preemergence, 31 g ai/ha) | Horseweed plant response rating ([7]; 62 g ai/ha, Preemergence) | Horseweed plant response rating ([7]; 125 g ai/ha, preemergence) | Plant response rating, Horseweed ([7]; Preemergence, 31 g ai/ha) | Plant response rating, Barnyardgrass [1, 16] | Plant response rating, Crabgrass, Large ([2]; 16 g ai/ha, preemergence) | further results
1 | Cn1nc(C(F)(F)F)c(C[S+]([O-])c2cccc[n+]2[O-])c1OCC(F)(F)F (racemic) [Compound 28] | 100 | 100 | 75 | 100 | 100 | 100 | 30 | 80 | 100 | 100 | 80 | 100 | 100 | 20 | 100 |  |  |  |  |  | 
2 | Cc1cc[n+]([O-])c(S(=O)(=O)Cc2c(C(F)(F)F)nn(C)c2Cl)c1 [Compound 19] | 90 | 98 | 70 | 80 | 80 | 95 | 35 | 50 |  |  |  | 30 | 90 | 0 | 0 | 0 | 100 | 0 |  |  | Sowthistle plant response rating ([5]; 62 g ai/ha, Preemergence): 80; Sowthistle plant response rating ([5]; 125 g ai/ha, preemergence): 95; Plant response rating, Sowthistle ([5]; Preemergence, 31 g ai/ha): 0; Chickweed plant response rating ([6]; 62 g ai/ha, Preemergence): 0; Chickweed plant response rating ([6]; 125 g ai/ha, preemergence): 75; Plant response rating, Chickweed ([6]; Preemergence, 16 g ai/ha): 0; Plant response rating, Chickweed ([6]; Preemergence, 31 g ai/ha): 0; Plant response rating, Horseweed ([7]; Preemergence, 16 g ai/ha): 0
3 | Cn1nc(C(F)(F)F)c(CS(=O)(=O)c2cccc[n+]2[O-])c1OCC(F)(F)F [Compound 29] | 100 | 100 | 50 | 100 | 95 | 100 | 15 | 95 | 0 | 25 | 0 | 100 | 100 | 0 | 95 |  |  |  |  |  | 
4 | CCn1nc(C(F)(F)F)c(CS(=O)(=O)c2cccc[n+]2[O-])c1OCC(F)(F)F [Compound 63] | 95 | 100 |  | 80 | 95 | 100 |  | 90 |  |  |  | 100 | 100 |  | 100 | 98 | 100 | 98 | 80 | 25 | Plant response rating, Horseweed ([7]; 16 g ai/ha, preemergence): 0; Plant response rating, Dayflower ([4]; 16 g ai/ha, preemergence): 0
5 | CC(Oc1c(C[S+]([O-])c2cccc[n+]2[O-])c(C(F)(F)F)nn1C)C(F)(F)F (stereo not drawn) [Compound 77] | 100 | 100 |  | 90 | 95 | 100 |  | 85 |  |  |  | 0 | 100 |  | 0 | 98 | 100 | 50 | 65 | 0 | Plant response rating, Sowthistle ([5]; 16 g ai/ha, preemergence): 0; Sowthistle plant response rating ([5]; 125 g ai/ha, preemergence): 50; Plant response rating, Sowthistle ([5]; Preemergence, 31 g ai/ha): 0; Plant response rating, Horseweed ([7]; 16 g ai/ha, preemergence): 0; Plant response rating, Dayflower ([4]; 16 g ai/ha, preemergence): 0
6 | CC(Oc1c(CS(=O)(=O)c2cccc[n+]2[O-])c(C(F)(F)F)nn1C)C(F)(F)F (stereo not drawn) [Compound 82] |  | 100 |  | 70 |  | 100 |  | 50 |  |  |  |  | 100 |  |  |  |  |  | 50 | 0 | Plant response rating (0 to 100), Canarygrass ([8]; 31 g ai/ha): 0; Plant response rating (0 to 100), Canarygrass ([8]; 62 g ai/ha): 0; Plant response rating, Canarygrass ([8]; 125 g ai/ha): 0; Plant response rating, Canarygrass ([8]; 250 g ai/ha): 0; Plant response rating (0 to 100), Barley ([9]; 31 g ai/ha): 0; Plant response rating (0 to 100), Barley ([9]; 62 g ai/ha): 0; Plant response rating, Barley ([9]; 125 g ai/ha): 0; Plant response rating, Barley ([9]; 250 g ai/ha): 0; Plant response rating, Barnyardgrass ([1]; Preemergence, 62 g ai/ha, scale 0 to 100): 80; Plant response rating, Crabgrass, Large ([2]; Preemergence, 62 g ai/ha): 90; Plant response rating (0 to 100), Chickweed ([10]; 31 g ai/ha): 0; Plant response rating (0 to 100), Chickweed ([10]; 62 g ai/ha): 0; Plant response rating, Chickweed ([10]; 125 g ai/ha): 0; Plant response rating, Chickweed ([10]; 250 g ai/ha): 0; Plant response rating, Dayflower ([4]; Preemergence, 62 g ai/ha): 90; Plant response rating (0 to 100), Windgrass ([11]; 31 g ai/ha): 70; Plant response rating (0 to 100), Windgrass ([11]; 62 g ai/ha): 90; Plant response rating, Windgrass ([11]; 125 g ai/ha): 100; Plant response rating, Windgrass ([11]; 250 g ai/ha): 100
